Measured values reported in patent publication US12643881B2, “Bicyclic amine CDK12 inhibitors” (Incyte Corporation, priority 2021, dated 2026).

These compounds were tested against T1, CDK12 complexed with Cyclin K (Homo sapiens, UniProt Q9NYV4) (assay: Alternative CDK Enzymatic Assays (HTRF, pre-incubation with compounds and 1 mM ATP), Example A2). Conditions: enzyme pre-incubated with compounds and 1 mM ATP for 60 minutes; reaction 120 minutes at 25° C.
T1 construct: GST (N)
Assay type: biochemical
Text: Example A2. Alternative CDK Enzymatic Assays
The following activity of the CDK enzymes in complex with their respective cyclins we assayed: CDK1 complexed with Cyclin B1; CDK2 complexed with Cyclin E1; CDK4 complexed with Cyclin D1; CDK6 complexed with Cyclin D1; CDK6 complexed with Cyclin D3; CDK9 complexed with Cyclin T1; CDK7 complexed with Cyclin H/MAT1; CDK2 complexed with Cyclin A2; CDK5 complexed with p35; CDK12 complexed with Cyclin K; CDK13 complexed with Cyclin K. These in vitro enzyme activity are assayed using homogeneous time-resolved energy transfer (HTRF), which measures phosphorylation of a peptide substrate. The LANCER Ultra kinase assay (PerkinElmer) uses a ULight™-labeled EIF4E-binding protein 1 (THR37/46) peptide (DYSTTPGGTLFSTTPGTRI (SEQ ID NO: 1)) substrate and a Europium-labeled anti-phospho-4E-BP1 antibody (CDK2, CDK1, CDK4, CDK6, CDK9, CDK12, CDK13) or ULight™-labeled Myelin Basic Protein peptide (VTPRTPPP (SEQ ID NO: 2)) substrate and a Europium-labeled anti-phospho-MBP antibody (CDK7). Each CDK enzyme activity assays utilized human CDK co-expressed as N-terminal GST-tagged protein with its full length cyclin partner using a baculovirus expression system.
Enzyme was pre-incubated with compounds and 1 mM ATP for 60 minutes (CDK 1, 2, 4, 6, 9, 7, 12, 13) prior to the addition of ATP and Ulight-peptide (1 mM and 50 nM final, respectively), in assay buffer containing 50 mM HEPES pH 7.5, 1 mM EGTA, 10 mM MgCl2, 2 mM DTT, 0.05 mg/mL BSA, and 0.01% Tween 20. The reaction was then incubated for 120 minutes at 25° C. incubator. The reactions were stopped by the addition of EDTA and Europium labeled antibody, for a final concentration of 15 mM and 0.5-1.5 nM, respectively. HTRF signals were read after 15-120 minutes. A ratio of fluorescence transferred to the labeled substrate (665 nm) relative to fluorescence of the Europium donor (620 nm) represents the extent of phosphorylation. Ratios for treated wells were normalized to DMSO only (100% activity) and no enzyme (0% activity) controls. Normalized data was analyzed using a three or four parameter dose response curve to determine IC50 for each compound and are shown in Table B. Control reference inhibitors were included on each plate.

T1 sequence (Q9NYV4 whole entry): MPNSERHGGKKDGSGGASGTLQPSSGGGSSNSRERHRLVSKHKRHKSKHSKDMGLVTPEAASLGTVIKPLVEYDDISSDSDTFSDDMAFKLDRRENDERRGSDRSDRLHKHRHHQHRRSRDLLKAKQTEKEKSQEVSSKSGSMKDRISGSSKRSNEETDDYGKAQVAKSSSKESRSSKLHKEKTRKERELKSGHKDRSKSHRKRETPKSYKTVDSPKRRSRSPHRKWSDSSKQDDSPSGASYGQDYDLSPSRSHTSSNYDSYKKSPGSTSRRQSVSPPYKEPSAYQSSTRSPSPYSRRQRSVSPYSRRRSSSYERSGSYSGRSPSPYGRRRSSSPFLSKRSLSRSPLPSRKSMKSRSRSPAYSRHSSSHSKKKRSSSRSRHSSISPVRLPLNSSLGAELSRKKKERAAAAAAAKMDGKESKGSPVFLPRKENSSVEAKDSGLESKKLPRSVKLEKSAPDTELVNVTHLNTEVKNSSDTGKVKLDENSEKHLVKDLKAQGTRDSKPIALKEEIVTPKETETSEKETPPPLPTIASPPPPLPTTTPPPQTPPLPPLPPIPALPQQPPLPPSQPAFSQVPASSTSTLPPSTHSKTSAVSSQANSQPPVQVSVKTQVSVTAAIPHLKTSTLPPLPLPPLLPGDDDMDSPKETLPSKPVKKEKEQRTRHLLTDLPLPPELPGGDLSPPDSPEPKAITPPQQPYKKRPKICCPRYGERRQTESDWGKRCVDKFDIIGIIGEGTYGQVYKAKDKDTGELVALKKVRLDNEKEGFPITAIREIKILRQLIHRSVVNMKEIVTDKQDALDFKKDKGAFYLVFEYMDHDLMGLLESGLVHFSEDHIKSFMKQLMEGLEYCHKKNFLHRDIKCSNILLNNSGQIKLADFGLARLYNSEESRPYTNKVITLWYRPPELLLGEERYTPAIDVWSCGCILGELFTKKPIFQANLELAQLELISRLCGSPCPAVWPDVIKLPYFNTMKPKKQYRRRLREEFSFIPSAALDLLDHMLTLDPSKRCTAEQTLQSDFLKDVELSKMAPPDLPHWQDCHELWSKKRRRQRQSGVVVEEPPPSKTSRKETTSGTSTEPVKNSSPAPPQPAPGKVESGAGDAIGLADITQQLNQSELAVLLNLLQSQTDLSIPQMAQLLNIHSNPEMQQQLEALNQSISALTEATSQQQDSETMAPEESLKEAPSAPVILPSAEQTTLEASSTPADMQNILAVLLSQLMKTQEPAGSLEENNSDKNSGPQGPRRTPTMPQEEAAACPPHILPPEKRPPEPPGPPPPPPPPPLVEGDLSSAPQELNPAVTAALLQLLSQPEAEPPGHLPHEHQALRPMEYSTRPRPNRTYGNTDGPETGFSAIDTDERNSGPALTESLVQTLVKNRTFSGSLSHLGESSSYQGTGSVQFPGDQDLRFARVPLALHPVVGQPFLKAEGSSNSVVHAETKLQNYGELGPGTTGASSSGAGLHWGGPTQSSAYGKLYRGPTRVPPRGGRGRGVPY
T1 sequence (O75909 whole entry partner): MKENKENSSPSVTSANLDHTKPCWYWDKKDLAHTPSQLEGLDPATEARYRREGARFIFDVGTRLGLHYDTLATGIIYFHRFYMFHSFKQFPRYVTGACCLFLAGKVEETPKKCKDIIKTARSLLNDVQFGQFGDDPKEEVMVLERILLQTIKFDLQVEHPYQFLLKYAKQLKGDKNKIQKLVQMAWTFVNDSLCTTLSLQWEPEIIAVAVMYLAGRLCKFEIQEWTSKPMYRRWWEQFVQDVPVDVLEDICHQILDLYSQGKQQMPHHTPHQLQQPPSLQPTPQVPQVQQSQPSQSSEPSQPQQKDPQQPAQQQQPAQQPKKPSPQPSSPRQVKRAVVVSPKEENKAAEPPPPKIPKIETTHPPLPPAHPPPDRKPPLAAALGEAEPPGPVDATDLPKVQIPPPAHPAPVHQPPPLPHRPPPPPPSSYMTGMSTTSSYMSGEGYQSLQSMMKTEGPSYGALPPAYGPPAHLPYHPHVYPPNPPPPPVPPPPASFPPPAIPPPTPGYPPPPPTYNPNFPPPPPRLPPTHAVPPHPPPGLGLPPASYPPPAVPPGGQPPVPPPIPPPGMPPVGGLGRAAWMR

IC50 [µM]	Structure (SMILES)
< 0.05	COCC#CC(=O)Nc1cc2nc(N3C[C@H](F)C[C@@H](Nc4ncc(C(F)(F)F)cn4)C3)n(C)c2cc1C [Example 114, N-(2-((3R,5R)-3-Fluoro-5-((5-(trifluoromethyl)pyrimidin-2-yl)amino)piperidin-1-yl)-1,6-dimethyl-1H-benzo[d]imidazol-5-yl)-4-methoxybut-2-ynamide]
< 0.05	C=CC(=O)Nc1cc2nc(N3C[C@H](F)C[C@@H](Nc4ncc(C(F)(F)F)cn4)C3)n(C)c2cc1C [Example 100, N-(2-((3R,5R)-3-fluoro-5-((5-(trifluoromethyl)pyrimidin-2-yl)amino)piperidin-1-yl)-1,6-dimethyl-1H-benzo[d]imidazol-5-yl)acrylamide]
< 0.05	C=CC(=O)Nc1ccc2c(c1)nc(N1CCC[C@@H](Nc3cc(OC)c(C#N)cn3)C1)n2C [Example 151, (R)—N-(2-(3-((5-Cyano-4-methoxypyridin-2-yl)amino)piperidin-1-yl)-1-methyl-1H-benzo[d]imidazol-5-yl)acrylamide]
> 0.5	C=CC(=O)Nc1cc2nc(N3CC[C@@H](O)[C@@H](Nc4ncc(C(F)(F)F)cn4)C3)n(C)c2cc1C [Example 148, N-(2-((3S,4R)-4-Hydroxy-3-((5-(trifluoromethyl)pyrimidin-2-yl)amino)piperidin-1-yl)-1,6-dimethyl-1H-benzo[d]imidazol-5-yl)acrylamide]
0.05 to 0.5	CC#CC(=O)N1C[C@@H]2C[C@H]1CN2c1nccn2c(N3C[C@H](F)C[C@@H](Nc4ncc(C(F)(F)F)cn4)C3)ncc12 [Example 106, 1-((1S,4S)-5-(3-((3R,5R)-3-Fluoro-5-((5-(trifluoromethyl)pyrimidin-2-yl)amino)piperidin-1-yl)imidazo[1,5-a]pyrazin-8-yl)-2,5-diazabicyclo[2.2.1]heptan-2-yl)but-2-yn-1-one]
< 0.05	C=CC(=O)Nc1ccc2c(c1)nc(N1C[C@H](O)C[C@@H](Nc3ncc(C#N)cn3)C1)n2C [Example 122, N-(2-((3R,5R)-3-((5-Cyanopyrimidin-2-yl)amino)-5-hydroxypiperidin-1-yl)-1-methyl-1H-benzo[d]imidazol-5-yl)acrylamide]

The compounds below were run against T1, CDK12 complexed with Cyclin K (assay: CDK Enzymatic Assays (HTRF, LANCE Ultra kinase assay), Example A1). Conditions: enzyme pre-incubated with compounds for 60 minutes prior to addition of ATP (1 mM final) and Ulight-peptide; reaction 60-90 minutes at room temperature.
Assay type: biochemical
Procedure, shortened: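 N-terminal GST-tagged human CDK12 co-expressed with full-length Cyclin K (baculovirus), pre-incubated with compound 60 min, then 1 mM ATP and 50 nM ULight-4E-BP1 peptide added in HEPES pH 7.5 buffer; 60-90 min at room temperature. EDTA/Eu-antibody stop, HTRF 665/620 ratio normalized to controls; IC50 from 3- or 4-parameter fit.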

IC50 [µM]	Structure (SMILES)
< 0.05	C=CC(=O)Nc1ccc2c(c1)nc(N1CCC[C@@H](Nc3ncc(C#N)c(OC)n3)C1)n2C [Example 37, (R)—N-(2-(3-((5-Cyano-4-methoxypyrimidin-2-yl)amino)piperidin-1-yl)-1-methyl-1H-benzo[d]imidazol-5-yl)acrylamide]
< 0.05	C=CC(=O)Nc1ccc2oc(N3CCC[C@@H](Nc4ncc(C#N)c(OC)n4)C3)nc2c1 [Example 36, (R)—N-(2-(3-((5-Cyano-4-methoxypyrimidin-2-yl)amino)piperidin-1-yl)benzo[d]oxazol-5-yl)acrylamide]
< 0.05	C=CC(=O)Nc1ccc2sc(N3CCC[C@@H](Nc4ncc(C#N)c(OC)n4)C3)nc2c1 [Example 40, (R)—N-(2-(3-((5-Cyano-4-methoxypyrimidin-2-yl)amino)piperidin-1-yl)benzo[d]thiazol-5-yl)acrylamide]
< 0.05	C=CC(=O)Nc1cnc2c(N3CCC[C@@H](Nc4ncc(C#N)c(OC)n4)C3)nccn12 [Example 34, (R)—N-(8-(3-((5-Cyano-4-methoxypyrimidin-2-yl)amino)piperidin-1-yl)imidazo[1,2-a]pyrazin-3-yl)acrylamide]
< 0.05	C=CC(=O)Nc1cc2nc(N3CC[C@H](F)[C@@H](Nc4ncc(C(F)(F)F)cn4)C3)n(C)c2cc1C [Example 99, N-(2-((3S,4S)-4-Fluoro-3-((5-(trifluoromethyl)pyrimidin-2-yl)amino)piperidin-1-yl)-1,6-dimethyl-1H-benzo[d]imidazol-5-yl)acrylamide]
< 0.05	C=CC(=O)Nc1ccc2c(c1)C(=O)N([C@H]1CCC[C@@H](Nc3ncc(C(C)C)cn3)C1)C2 [Example 12, N-(2-((1S,3R)-3-((5-Isopropylpyrimidin-2-yl)amino)cyclohexyl)-3-oxoisoindolin-5-yl)acrylamide]
< 0.05	C=CC(=O)Nc1ccc2c(c1)C(=O)N([C@H]1CCC[C@@H](Nc3cc(C#N)c(C(F)(F)F)cn3)C1)C2 [Example 19, N-(2-((1S,3R)-3-((4-Cyano-5-(trifluoromethyl)pyridin-2-yl)amino)cyclohexyl)-3-oxoisoindolin-5-yl)acrylamide]
< 0.05	C=CC(=O)Nc1ccc2c(c1)C(=O)N([C@H]1CCC[C@@H](Nc3ncc(C#N)c(NCC(C)(C)O)n3)C1)C2 [Example 66, N-(2-((1S,3R)-3-((5-Cyano-4-((2-hydroxy-2-methylpropyl)amino)pyrimidin-2-yl)amino)cyclohexyl)-3-oxoisoindolin-5-yl)acrylamide]
< 0.05	CC#CC(=O)Nc1nn(C)c2cc(N3CCC[C@@H](Nc4ncc(C#N)c(OC)n4)C3)ncc12 [Example 30, (R)—N-(6-(3-((5-Cyano-4-methoxypyrimidin-2-yl)amino)piperidin-1-yl)-1-methyl-1H-pyrazolo[4,3-c]pyridin-3-yl)but-2-ynamide]
< 0.05	C=CC(=O)Nc1ccc2c(c1)nc([C@H]1CCC[C@@H](Nc3ncc(C#N)cn3)C1)n2C [Example 74, N-(2-((1S,3R)-3-((5-Cyanopyrimidin-2-yl)amino)cyclohexyl)-1-methyl-1H-benzo[d]imidazol-5-yl)acrylamide]
< 0.05	C=CC(=O)Nc1cc2nc(N3CC[C@@H](F)[C@@H](Nc4ncc(C(F)(F)F)cn4)C3)n(C)c2cc1C [Example 98, N-(2-((3S,4R)-4-Fluoro-3-((5-(trifluoromethyl)pyrimidin-2-yl)amino)piperidin-1-yl)-1,6-dimethyl-1H-benzo[d]imidazol-5-yl)acrylamide]
< 0.05	C=CC(=O)Nc1c(C)nc2c(N3CCC[C@@H](Nc4ncc(C#N)c(OC)n4)C3)nccn12 [Example 14, (R)—N-(8-(3-((5-Cyano-4-methoxypyrimidin-2-yl)amino)piperidin-1-yl)-2-methylimidazo[1,2-a]pyrazin-3-yl)acrylamide]
< 0.05	CCOC(=O)/C=C/C(=O)Nc1ccc2c(c1)nc([C@H]1CCC[C@@H](Nc3ncc(C#N)c(OC)n3)C1)n2C [Example 48, Ethyl (E)-4-((2-((1S,3R)-3-((5-Cyano-4-methoxypyrimidin-2-yl)amino)cyclohexyl)-1-methyl-1H-benzo[d]imidazol-5-yl)amino)-4-oxobut-2-enoate]
> 0.5	C=CC(=O)Nc1ccc2c(c1)C(=O)N([C@H]1CCC[C@@H](Nc3ccc(C#N)c(C)n3)C1)C2 [Example 15, N-(2-((1S,3R)-3-((5-Cyano-6-methylpyridin-2-yl)amino)cyclohexyl)-3-oxoisoindolin-5-yl)acrylamide]
< 0.05	C=CC(=O)Nc1ccc2c(c1)nc([C@H]1CC[C@@H](Nc3ncc(C#N)cn3)C1)n2C [Example 70, N-(2-((1S,3R)-3-((5-Cyanopyrimidin-2-yl)amino)cyclopentyl)-1-methyl-1H-benzo[d]imidazol-5-yl)acrylamide]
< 0.05	C=CC(=O)Nc1cccc2c1ncn2[C@H]1CCC[C@@H](Nc2ncc(C#N)cn2)C1 [Example 69, N-(1-((1S,3R)-3-((5-Cyanopyrimidin-2-yl)amino)cyclohexyl)-1H-benzo[d]imidazol-4-yl)acrylamide]
< 0.05	COc1nc(N[C@@H]2CCC[C@H](N3Cc4ccc(NC(=O)CCl)cc4C3=O)C2)ncc1C#N [Example 59, 2-Chloro-N-(2-((1S,3R)-3-((5-cyano-4-methoxypyrimidin-2-yl)amino)cyclohexyl)-3-oxoisoindolin-5-yl)acetamide]
